Where two headings read alike, the source gives them in different places.
Molecular target: T1, gastric H,K-ATPase (Sus scrofa, UniProt P19156)
T1 construct: We prepared H,K-ATPase (EC 7.2.2.19)-enriched membrane vesicles according to Sachs et al; from tissue; host or cells: gastric membrane vesicles
Test: H,K-ATPase activity (Pi release from ATP) inhibition, steady-state kinetic analysis
Assay type: biochemical, hog
Details: for IC50: 10 mM KCl, read-out: K0.5 for inhibition of ATPase activity; for Kd: fit of model III (binding to E2P and E1ATP), 37 °C
Method: We prepared H,K-ATPase (EC 7.2.2.19)-enriched membrane vesicles according to Sachs et al. ([36]), with slight modifications. The number of nucleotide sites measured under optimal conditions (2.2 mM ATP, 4 mM MgCl2, 0.25 mM EDTA in 25 mM imidazole–HCl, pH 7.4 at 25 °C) was 1.4 nmol per mg of protein. This preparation is essentially free of contamination with Na,K-ATPase, as evidenced by the lack of ouabain-sensitive activity. 0.4 to 0.6 mg alamethicin per milligram protein was used to permeabilize the vesicles.
ATP hydrolysis by H,K-ATPase was measured by following the time course of Pi release at 37 °C; linearity was always checked in order to ensure initial rate conditions. Pi concentration was determined according to the method described by Baginski et al. ([37]) Incubations were performed at 37 °C in media containing 8 μg protein ml^−1, 2 mM ATP, 4 mM MgCl2, and 0.25 mM EDTA in 20 mM imidazole – 20 mM Tris (varying pH) in a final volume of 0.25 ml. KCl concentrations varied between 0 and 100 mM, using choline chloride to adjust total monovalent salt concentration to 150 mM. Reaction blanks were determined by measuring ATP hydrolysis in media containing vanadate. For experiments at variable pH, a buffer combination of 20 mM imidazole-HCl and 20 mM Tris–HCl was used. Tegoprazan and SCH28080 were dissolved in DMSO. The final DMSO concentration in the reaction media was 1%.
were fitted to the data of ATPase activity by nonlinear regression based on the Gauss–Newton algorithm by commercial programs ([38]). Kis parameters are apparent dissociation constants expressed in concentration units, whereas the ais parameters are coefficients with units of activity. A methodical exploration of the equation that best fits each set of results was performed. We first determined the degree of the polynomials in the numerator and the denominator (considering the restriction of n ≤ d and m ≤ d to conform to steady-state equations for enzymes) and then evaluated the contribution of terms of intermediate degree. The goodness of fit of a given equation to the experimental results was evaluated by the AICc ([39]) defined as(5) AICc=N·ln(SS/N)+2·(K+1)·N/(N−K−2) with N: number of data, K: number of parameters, and SS: sum of weighted square residual errors. This criterion allows one to select among multiple equations, the one that best describes the behavior of the experimental data using the least number of parameters, that is the lower value of AICc.
The equations of activity as a function of ligands for each kinetic model were attained using the Mathematica for Windows program. To determine the parameters that will be used to simulate the data, the rate constants and pKa values were fitted to the results using a procedure based on the Gauss–Newton algorithm until the SD of the residual errors reaches a minimal value.

T1 sequence (P19156 2-1034 limits assumed): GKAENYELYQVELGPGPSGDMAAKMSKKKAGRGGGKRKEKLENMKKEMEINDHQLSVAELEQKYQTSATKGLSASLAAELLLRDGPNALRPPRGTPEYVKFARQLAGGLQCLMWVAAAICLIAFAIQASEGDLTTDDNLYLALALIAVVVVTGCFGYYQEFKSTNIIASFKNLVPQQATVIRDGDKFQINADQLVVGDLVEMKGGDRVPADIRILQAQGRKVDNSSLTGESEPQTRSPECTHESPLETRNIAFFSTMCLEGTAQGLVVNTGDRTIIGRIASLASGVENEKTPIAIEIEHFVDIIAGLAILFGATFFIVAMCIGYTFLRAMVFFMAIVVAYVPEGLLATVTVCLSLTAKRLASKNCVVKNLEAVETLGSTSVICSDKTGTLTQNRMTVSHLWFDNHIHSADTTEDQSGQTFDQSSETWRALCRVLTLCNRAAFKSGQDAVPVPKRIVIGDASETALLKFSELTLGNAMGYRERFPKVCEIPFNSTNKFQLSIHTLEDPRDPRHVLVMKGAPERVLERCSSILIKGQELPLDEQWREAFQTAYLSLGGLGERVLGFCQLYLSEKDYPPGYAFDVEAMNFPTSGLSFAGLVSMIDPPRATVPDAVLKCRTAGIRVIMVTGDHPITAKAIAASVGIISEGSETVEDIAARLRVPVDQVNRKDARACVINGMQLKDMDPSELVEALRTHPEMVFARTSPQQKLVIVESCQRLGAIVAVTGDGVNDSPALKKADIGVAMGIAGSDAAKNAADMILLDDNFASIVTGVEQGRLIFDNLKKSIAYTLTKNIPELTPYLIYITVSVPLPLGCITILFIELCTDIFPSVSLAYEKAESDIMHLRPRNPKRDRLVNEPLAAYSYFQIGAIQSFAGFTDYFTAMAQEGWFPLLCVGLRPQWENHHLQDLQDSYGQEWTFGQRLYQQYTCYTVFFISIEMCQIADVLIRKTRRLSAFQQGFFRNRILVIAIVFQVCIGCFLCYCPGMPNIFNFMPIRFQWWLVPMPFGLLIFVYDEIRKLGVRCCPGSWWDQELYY
T1 sequence (P18434 whole entry partner): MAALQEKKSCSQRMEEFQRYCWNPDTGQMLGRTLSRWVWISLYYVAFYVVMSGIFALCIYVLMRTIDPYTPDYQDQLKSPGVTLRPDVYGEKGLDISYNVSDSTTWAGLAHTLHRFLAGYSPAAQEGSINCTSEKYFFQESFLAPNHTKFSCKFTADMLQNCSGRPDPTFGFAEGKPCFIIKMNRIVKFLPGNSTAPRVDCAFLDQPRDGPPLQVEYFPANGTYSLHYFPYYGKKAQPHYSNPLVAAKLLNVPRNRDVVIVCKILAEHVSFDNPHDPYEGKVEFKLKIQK

effect of inhibitor on K0.5 for potassium (Equation 3) ([K+] 0-15 mM, pH 7.2): increase in K0.5
effect of inhibitor on Vmax (Equation 3) ([K+] 0-15 mM, pH 7.2): decrease in Vmax
effect of inhibitor on K1, apparent high-affinity dissociation constant for K+ (Equation 1) ([K+] 0-75 mM): increase in K1
effect of inhibitor on K2, apparent low-affinity dissociation constant for K+ (Equation 1) ([K+] 0-75 mM): slight increase
Kii, equilibrium constant for low-affinity binding (E2KATP), model II (fit of model II (binding to E2P and E2KATP), [K+] 0-75 mM): 3.55 µM
Ki (fit of model II (binding to E2P and E2KATP), [K+] 0-75 mM, read-out: Ki, equilibrium constant for high-affinity binding (E2P), model II): 410 nM
IC50 (pH 6.2): 890 ± 40 nM
IC50 (pH 7.2): 3250 ± 290 nM
Kd (pH 7.2, [K+] 0-75 mM, read-out: apparent Kd / apparent affinity constant, high-affinity binding (Ki) to E2P, model III): 560 ± 40 nM
Kd (pH 7.2, [K+] 0-75 mM, read-out: apparent Kd / apparent affinity constant, low-affinity binding (Kii) to E1ATP, model III): 2700 ± 240 nM
Compound: Cc1nc2c(O[C@H]3CCOc4cc(F)cc(F)c43)cc(C(=O)N(C)C)cc2[nH]1 [tegoprazan, (S)-4-((5,7-difluorochroman-4-yl)oxy)-N,N,2-trimethyl−1Hbenzo[d]imidazole-6-carboxamide]
effect of inhibitor on a1, theoretical maximal activity (Equation 1) ([K+] 0-75 mM): decreases as a function of the inhibitor concentration

Source: PMC11697777, “How ligands modulate the gastric H,K-ATPase activity and its inhibition by tegoprazan” (The Journal of Biological Chemistry, 2024)
